Test results: patent US9963467B2, “Boronic acid derivatives and therapeutic uses thereof” (Rempex Pharmaceuticals, Inc., priority 2014, dated 2018)

Columns and labels:
KP1005 (CTX-M-14) [1] = experiment: Aztreonam potentiation (MPC@4), KP1005; assay type: cell-based; details: BLI with aztreonam at 4 μg/mL
ECL1002 [2] = experiment: Aztreonam potentiation (MPC@4), ECL1002; assay type: cell-based; details: BLI with aztreonam at 4 μg/mL
KP1009 (CTX-M-15) [3] = experiment: Tigemonam potentiation (MPC@4), KP1009; assay type: cell-based; details: BLI with tigemonam at 4 μg/mL
KP1005 (CTX-M-14) [4] = experiment: Tigemonam potentiation (MPC@4), KP1005; assay type: cell-based; details: BLI with tigemonam at 4 μg/mL
KP1004 (KPC-2) = experiment: Biapenem potentiation (MPC@1), KP1004; details: BLI with biapenem at 1 μg/mL
PAM1032/KPC-2 = experiment: Biapenem potentiation MPC64, PAM1032/KPC-2 (efflux proficient); assay type: cell-based, Pseudomonas aeruginosa; details: BLI to decrease MIC of biapenem 64-fold; MexAB-OprM overexpressed
Method: (§1) Efflux of BLIs from Pseudomonas aeruginosa by the MexAB-OprM efflux pump was also evaluated. […] Due to expression of KPC-2 both strains became resistant to biapenem. […] Potency of BLIs to potentiate biapenem in these strains was determined. […] The ratio of MPC64 values for each BLI in PAM1032/KPC-2 (efflux proficient) and PAM1154/KPC-2 (efflux deficient) was determined to generate the Efflux Index (EI).

KP1086 (OXA-48) = experiment: Biapenem potentiation (MPC@1), KP1086; details: BLI with biapenem at 1 μg/mL
EC1010 (CMY-6) = experiment: organism not typed; assay type: cell-based
ec308 (SHV-5) [5] = experiment: Tigemonam potentiation (MPC@4), ec308; assay type: cell-based
ec302 (TEM-10) [6] = experiment: Aztreonam potentiation (MPC@4), ec302; assay type: cell-based; details: BLI with aztreonam at 4 μg/mL
ECL1002 [7] = experiment: Tigemonam potentiation (MPC@4), ECL1002; assay type: cell-based; details: BLI with tigemonam at 4 μg/mL
KP1010 (SHV-12) [8] = experiment: Aztreonam potentiation (MPC@4), KP1010; assay type: cell-based
ec308 (SHV-5) [9] = experiment: Aztreonam potentiation (MPC@4), ec308; assay type: cell-based; details: BLI with aztreonam at 4 μg/mL
ec302 (TEM-10) [10] = experiment: Tigemonam potentiation (MPC@4), ec302; assay type: cell-based
KP1009 (CTX-M-15) [11] = experiment: organism not typed; assay type: cell-based
KP1010 (SHV-12) [12] = experiment: Tigemonam potentiation (MPC@4), KP1010; assay type: cell-based
OXA-48 = OXA-48 (Klebsiella pneumoniae, UniProt Q6XEC0); experiment: Ki, nitrocefin cleavage by purified enzyme, OXA-48; assay type: biochemical; details: nitrocefin reporter substrate; read-out: Ki (OXA-48, NCF)
OXA-48, sequence (Q6XEC0 23-265, looked up, species assumed): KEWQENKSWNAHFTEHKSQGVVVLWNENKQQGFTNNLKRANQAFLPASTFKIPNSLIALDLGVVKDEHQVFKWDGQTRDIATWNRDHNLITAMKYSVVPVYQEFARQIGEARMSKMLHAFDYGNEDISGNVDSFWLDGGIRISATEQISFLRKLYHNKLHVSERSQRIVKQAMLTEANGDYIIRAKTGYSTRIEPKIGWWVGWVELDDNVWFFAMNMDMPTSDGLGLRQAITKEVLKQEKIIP
Summary of the method: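 Purified enzyme was preincubated with a range of inhibitor concentrations in reaction buffer for 10 min at room temperature. Nitrocefin was then added and its cleavage followed at 490 nm every 10 sec for 10 min.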

PAM1154/KPC-2 = experiment: Biapenem potentiation MPC64, PAM1154/KPC-2 (efflux deficient); assay type: cell-based, Pseudomonas aeruginosa; details: BLI to decrease MIC of biapenem 64-fold; lacking MexAB-OprM
Method: as §1

Which “AZT MPC4 CTX-M-14 KP1005” value (KP1005 (CTX-M-14) [1]) does the source give for `O=CN[C@H]1Cc2cccc(C(=O)O)c2OB1O` [F, reference compound] here?
Its value is “Y (MIC of 1 μg/mL to 10 μg/mL)”.

What about the “AZT MPC4 ECL1002” value (ECL1002 [2]) of the same compound?
Its value is “Y (MIC of 1 μg/mL to 10 μg/mL)”.

What about the “TIG MPC4 CTX-M-15 KP1009” value (KP1009 (CTX-M-15) [3]) of the same compound?
The value was “Y (MIC of 1 μg/mL to 10 μg/mL)”.

And the “TIG MPC4 CTX-M-14 KP1005” value (KP1005 (CTX-M-14) [4])?
Its value is “Y (MIC of 1 μg/mL to 10 μg/mL)”.

What about the “BPM MPC1 KP1004 KPC-2” value (KP1004 (KPC-2)) of the same compound?
Its value is “X (MIC of less than 1 μg/mL)”.

And the “PAM1032/KPC-2 Biapenem MPC64” value (PAM1032/KPC-2)?
Its value is 5.

What about the “BPM MPC1 OXA-48 KP1086” value (KP1086 (OXA-48)) of the same compound?
Its value is “Y (MIC of 1 μg/mL to 10 μg/mL)”.

And the “AZT MPC4 CMY-6 EC1010” value (EC1010 (CMY-6))?
The value was “Y (key: X: MIC of less than 1 ng/mL; Y: MIC of 1 μg/mL to 10 μg/mL; Z: MIC of greater than 10 μg/mL)”.

What about the “TIG MPC4 SHV-5 ec308” value (ec308 (SHV-5) [5]) of the same compound?
Its value is “Y (key: X: MIC of less than 1 ng/mL; Y: MIC of 1 μg/mL to 10 μg/mL; Z: MIC of greater than 10 μg/mL)”.

What about the “AZT MPC4 TEM-10 ec302” value (ec302 (TEM-10) [6]) of the same compound?
Its value is “Z (MIC of greater than 10 μg/mL)”.

And the “TIG MPC4 ECL1002” value (ECL1002 [7])?
The value was “X (MIC of less than 1 μg/mL)”.

And the “AZT MPC4 SHV-12 KP1010” value (KP1010 (SHV-12) [8])?
The value was “Y (key: X: MIC of less than 1 ng/mL; Y: MIC of 1 μg/mL to 10 μg/mL; Z: MIC of greater than 10 μg/mL)”.

And the “AZT MPC4 SHV-5 ec308” value (ec308 (SHV-5) [9])?
Its value is “Y (MIC of 1 μg/mL to 10 μg/mL)”.

What about the “TIG MPC4 TEM-10 ec302” value (ec302 (TEM-10) [10]) of the same compound?
The value was “Z (key: X: MIC of less than 1 ng/mL; Y: MIC of 1 μg/mL to 10 μg/mL; Z: MIC of greater than 10 μg/mL)”.

What about the “AZT MPC4 CTX-M-15 KP1009” value (KP1009 (CTX-M-15) [11]) of the same compound?
Its value is “Y (key: X: MIC of less than 1 ng/mL; Y: MIC of 1 μg/mL to 10 μg/mL; Z: MIC of greater than 10 μg/mL)”.

What about the “TIG MPC4 SHV-12 KP1010” value (KP1010 (SHV-12) [12]) of the same compound?
Its value is “Y (key: X: MIC of less than 1 ng/mL; Y: MIC of 1 μg/mL to 10 μg/mL; Z: MIC of greater than 10 μg/mL)”.

What about the Ki (OXA-48) of the same compound?
Its Ki is < 1 nM.

What about the “PAM1154/KPC-2 Biapenem MPC64” value (PAM1154/KPC-2) of the same compound?
The value was 1.25.
